Data: EP0635577B1, “Screen for inhibitors of melanin biosynthesis” (BASF AKTIENGESELLSCHAFT, priority 1993, dated 1995)
Where a name gives a salt, the structure may show the parent alone. Read-outs that look alike come from different tables or passages of the source.

Test system: Cladosporium cucumerinum
Experiment: melanin biosynthesis inhibition screen, disk diffusion assay on solidified culture
Assay type: cell-based
Procedure: Potato dextrose medium (PDM) for the screening test is prepared by melting
The mixture is autoclaved as 150 ml aliquots at 121°C for 25 minutes.
A chloramphenicol stock solution is prepared to contain 15 mg chloramphenicol per mL absolute ethanol and is stored at -20°C.
Conidia from Cladosporium cucumerinum, 10^7/mL in 0.03% Tween 20™, retain their viability for at least 12 weeks of storage in 1.8 ml cryovials at -85°C. Inoculum for running the screen are raised once every three months and stored without a cryoprotectant at the working concentration of 10^7 conidia/mL.
Fresh inoculum suspensions are prepared from conidial suspensions stored at -85°C. A cryovial is thawed by hand-heat, and 200 uL spread on the surface of PDA in 9 cm Petri dishes. Plates are placed in a resin box (to prevent fungal escape) and incubated at room temperature, 40 cm below laboratory fluorescent lights. Seven days later conidia are collected. Five mL of 0.03% Tween 20™ is added to each plate, and the conidia are released by rubbing the mycelium with a glass rod. The suspension is passed through a layer of sterile Miracloth™ and the concentration adjusted to 10^7 conidia/mL in 0.03% Tween 20™ using a haemocytometer. Aliquots of 1 mL are dispensed into cryovials and placed in a polystyrene holder to freeze slowly to -85°C.
For the test, 150 mL of PDM is cooled to 35°C, and 0.1 mL of chloramphenicol stock solution is added by gentle swirling. A vial of C. cucumerinum conidial suspension (10^7 conidia/ml in Tween 20™) thawed with hand-heat is mixed into the growth medium using gentle swirling. The mixture is poured immediately into a Biotray, and the agar is allowed to solidify.
Test compounds are applied to 0.63 cm (¼ inch) filter disks. Each test includes a positive control, 200 ng tricyclazole in 20% dimethyl sulphoxide (DMSO). The plate is incubated at room-temperature (∼23°C) 40 cm below laboratory fluorescent lights. The plate is read 40 hours later. […] The Biotrays are autoclaved before disposal.
The compounds are applied as 20 ul droplets from a 1 mg/ml stock solution.

[1] = Antifungal Panel, growth inhibition zone, 20 ul droplets from a 1 mg/ml stock solution on filter disk, read 40 hours later
[2] = Antifungal Panel, effect on growth and pigmentation in words, 20 ul droplets from a 1 mg/ml stock solution on filter disk, read 40 hours later
[3] = C. cucumerinum Antibiotic Panel, growth inhibition zone, screen of Example 1
[4] = C. cucumerinum Antibiotic Panel, effect on growth and pigmentation in words, screen of Example 1

Compound | Observation: inhibits, radius cleared [1] | Observation [4] | other results
CCCCNC(=O)n1c(NC(=O)OC)nc2ccccc21 [Benomyl] | inhibits, 31 mm radius cleared |  | 
C=CC1(C)OC(=O)N(c2cc(Cl)cc(Cl)c2)C1=O (stereo not drawn) [Ronilon] |  |  | Observation [2]: very slight effect on growth
Cc1cc(O)c2c(c1)C(=O)[C@]13C(=C2O)C(=O)[C@@H]2[C@H](O)[C@H]1[C@@H]1[C@@H](O)[C@H]3C(=O)C3=C(O)c4c(O)cc(C)cc4C(=O)[C@]312 [Rugulosin] |  |  | Observation: inhibits, radius cleared [3]: inhibits, 9 mm radius cleared
CC(C)(C)C(O)/C(=C\c1ccc(Cl)cc1Cl)n1cncn1 (stereo not drawn) [Diniconazole] | inhibits, 27 mm radius cleared |  | 
Flavofungin |  | no effect on growth or pigmentation | 
CN[C@H](CC(C)C)C(=O)N[C@H]1C(=O)N[C@@H](CC(N)=O)C(=O)N[C@H]2C(=O)N[C@H]3C(=O)N[C@H](C(=O)N[C@H](C(=O)O)c4cc(O)cc(O)c4-c4cc3ccc4O)[C@H](O)c3ccc(c(Cl)c3)Oc3cc2cc(c3O[C@@H]2O[C@H](CO)[C@@H](O)[C@H](O)[C@H]2O[C@H]2C[C@](C)(N)[C@H](O)[C@H](C)O2)Oc2ccc(cc2Cl)[C@H]1O [Vancomycin HCl] |  |  | Observation: no effect on growth or pigmentation
CN(C)c1ncnc2c1ncn2[C@@H]1O[C@H](CO)[C@@H](N)[C@H]1O [Puromycin Aminonucleoside] |  | no effect on growth or pigmentation | 
Clc1ccc(COC(Cn2ccnc2)c2ccc(Cl)cc2Cl)cc1 (stereo not drawn) [Econazole] | inhibits, 32 mm radius cleared |  | 
Nc1ccn([C@@H]2O[C@H]([C@H](O[C@@H]3O[C@H](CO)[C@@H](O)[C@H](N)[C@H]3O)[C@@H](O)[C@@H](O)[C@H](O)[C@H](O)CO)[C@@H](N)[C@H](O)[C@H]2O)c(=O)n1 [Anthelmycin] |  |  | Observation: inhibits, radius cleared [3]: inhibits, 14 mm radius cleared
Noconazole | inhibits, 8 mm radius cleared |  | 
Neomycin Sulfate |  | no effect on growth or pigmentation | 
Protomycin/Streptimidone |  | no effect on growth or pigmentation | 
C[C@@H]1C/C=C/C=C/C=C/C=C/[C@H](O[C@@H]2O[C@H](C)[C@@H](O)[C@H](N)[C@@H]2O)C[C@@H]2O[C@](O)(C[C@@H](O)C[C@H]3O[C@@H]3/C=C/C(=O)O1)C[C@H](O)[C@H]2C(=O)O [Tennecetin] |  | no effect on growth or pigmentation | 
CC(=O)N1CCN(c2ccc(OCC3COC(Cn4ccnc4)(c4ccc(Cl)cc4Cl)O3)cc2)CC1 (stereo not drawn) [Ketoconazole] | inhibits, 26 mm radius cleared |  | 
NC(=O)OC[C@H](O)[C@@H](O)[C@H](N)C(=O)N[C@H](C(=O)O)[C@H]1O[C@@H](n2cc(C(=O)O)c(=O)[nH]c2=O)[C@H](O)[C@@H]1O [Polyoxin D] | inhibits, 7 mm radius cleared |  | 
NC[C@H]1O[C@H](O[C@H]2[C@H](O)[C@@H](O[C@H]3O[C@H](CO)[C@@H](O)[C@H](N)[C@H]3O)[C@H](N)C[C@@H]2N)[C@H](O)[C@@H](O)[C@@H]1O [Kanamycin] | inhibits, 10 mm radius cleared |  | 
C/C=C/[C@H]1O[C@@](O)([C@@H](C)[C@H](O)[C@H](C)[C@H]2OC(=O)/C(OC)=C/C(C)=C/[C@@H](C)[C@@H](O)[C@@H](CC)[C@@H](O)[C@H](C)C/C(C)=C/C=C/[C@@H]2OC)C[C@@H](O[C@H]2C[C@@H](O)[C@H](OC(N)=O)[C@@H](C)O2)[C@@H]1C [Folimycin] |  |  | Observation: inhibits, radius cleared [3]: inhibits, 4 mm radius cleared
[H]/N=C(/N)N[C@H]1[C@H](O)[C@@H](O)[C@H](O[C@@H]2O[C@@H](C)[C@](O)(C=O)[C@H]2O[C@@H]2O[C@@H](CO)[C@H](O)[C@@H](O)[C@@H]2NC)[C@@H](N/C(N)=N\[H])[C@@H]1O [Streptomycin Sulfate] |  | no effect on growth or pigmentation | 
Thioaurin |  |  | Observation: inhibits, radius cleared [3]: inhibits, 16 mm radius cleared
Clc1ccc(COC(Cn2ccnc2)c2ccc(Cl)cc2Cl)c(Cl)c1 (stereo not drawn) [Miconazole] | inhibits, 31 mm radius cleared |  | 
OC(c1ccc(Cl)cc1)(c1cncnc1)c1ccccc1Cl (stereo not drawn) [Fenarimole] | inhibits, 22 mm radius cleared |  | 
Hamycin |  | no effect on growth or pigmentation | 
Monicamycin |  | no effect on growth or pigmentation | 
Cc1cccc(N(C)C(=S)Oc2ccc3ccccc3c2)c1 [Tolnaftate] | inhibits, 13 mm radius cleared |  | 
CCCCCCCCCCCCCN1CC(C)OC(C)C1 (stereo not drawn) [Tridemorph] | inhibits, 6 mm radius cleared |  | 
Aureofungin |  | no effect on growth or pigmentation | 

Compound | Observation: inhibits, radius cleared [1] | Observation [4] | other results
Tunicamycin | inhibits, 22 mm radius cleared |  | 
Maneb |  |  | Observation [2]: no effect on pigmentation, growth thin
Neohumidin |  | no effect on growth or pigmentation | 
COC(=O)c1ccccc1S(=O)(=O)NC(=O)Nc1nc(C)cc(C)n1 [Sulfometuron methyl] | inhibits, 6 mm radius cleared |  | 
CC[C@H]1OC(=O)C[C@@H](O)[C@H](C)[C@@H](O[C@@H]2O[C@H](C)[C@@H](O[C@H]3C[C@@](C)(O)[C@@H](O)[C@H](C)O3)[C@H](N(C)C)[C@H]2O)[C@@H](CC=O)C[C@@H](C)C(=O)/C=C/C(C)=C/[C@@H]1CO[C@@H]1O[C@H](C)[C@@H](O)[C@@H](OC)[C@H]1OC [Tylosin Tartrate] |  | no effect on growth or pigmentation | 
CN[C@@H]1C[C@H](N)[C@@H](O)[C@H](O[C@@H]2O[C@H](CO)[C@H](O)[C@@H]3OC4(O[C@H]23)O[C@H]([C@@H](N)CO)[C@H](O)[C@H](O)[C@H]4O)[C@H]1O (stereo partly drawn) [Destomycin A] |  |  | Observation: inhibits, radius cleared [3]: inhibits, 18 mm radius cleared
Cc1cc(=O)n2c3c(c4c(cc13)c(CO)cc(=O)n4C)OC2 [Nybomycin] |  | no effect on growth or pigmentation | 
CCCCC[C@@H](O)[C@H]1C(=O)O[C@H](C)[C@@H](O)/C=C/C=C/C=C/C=C/C=C(\C)[C@@H](O)[C@H](O)[C@H](O)C[C@H](O)C[C@H](O)C[C@H](O)C[C@H](O)C[C@@H]1O [Pentamycin] |  | no effect on growth or pigmentation | 
C[C@@H]1[C@H](O)[C@@H](C)/C=C/C=C/C=C/C=C/C=C/C=C/C=C/[C@H](O[C@@H]2O[C@H](C)[C@@H](O)[C@H](N)[C@@H]2O)C[C@@H]2O[C@](O)(C[C@@H](O)C[C@@H](O)[C@H](O)CC[C@@H](O)C[C@@H](O)CC(=O)O[C@H]1C)C[C@H](O)[C@H]2C(=O)O [Amphotericin B] |  |  | Observation [2]: no effect on growth or pigmentation
CC(=O)Nc1c2sscc-2n(C)c1=O [Thiolutin] |  |  | Observation: inhibits, radius cleared [3]: inhibits, 23 mm radius cleared
C[C@@H]1C[C@@H]([C@H](O)CC2CC(=O)NC(=O)C2)C(=O)[C@@H](C)C1 [Cycloheximide] |  |  | Observation: inhibits, radius cleared: inhibits, 22 mm radius cleared
Nc1nc(=O)[nH]cc1F [5-Fluoro-Cytosine] | inhibits, 35 mm radius cleared |  | 
CSC[S@+]([O-])C[C@H](CO)NC(=O)/C=C/c1c(C)[nH]c(=O)[nH]c1=O [Sparsomycin] |  | no effect on growth or pigmentation | 
Azalomycin |  |  | Observation: inhibits, radius cleared [3]: inhibits, 14 mm radius cleared
CP(=O)(O)CC[C@H](N)C(=O)O [Phosphenothricin] | inhibits, 20 mm radius cleared |  | 
C[C@H]1C[C@H](C)C(=O)[C@@H]([C@H](O)CC2CC(=O)NC(=O)C2)C1 [Naramycin B] |  |  | Observation: inhibits, radius cleared [3]: inhibits, 15 mm radius cleared
COCC(=O)N(c1c(C)cccc1C)C(C)C(=O)OC (stereo not drawn) [Metalaxyl] |  |  | Observation [2]: no effect on growth or pigmentation
COc1oc([C@H]2C/C(=C/C(C)=C/c3ccc([N+](=O)[O-])cc3)CO2)c(C)c(=O)c1C [Mycolutein] |  |  | Observation: fungal thinning, radius (C. cucumerinum Antibiotic Panel, screen of Example 1): fungal thinning, 16 mm radius
CC1=C(C(=O)Nc2ccccc2)SCCO1 [Carboxin] | inhibits, 21 mm radius cleared |  | 
Trichomycin |  | no effect on growth or pigmentation | 
C[C@H]1CCC/C=C/[C@@H]2C[C@H](O)C[C@H]2[C@H](O)/C=C/C(=O)O1 [Ascotoxin] |  | no effect on growth or pigmentation | 
Clc1cc(Cl)c(OCC#CI)cc1Cl [Haloprofin] | inhibits, 13 mm radius cleared |  | 
CN1C(=O)[C@]23CC4=CC=C[C@H](O)[C@H]4N2C(=O)[C@@]1(CO)SS3 [Gliotoxin] |  |  | Observation: inhibits, radius cleared: inhibits, 17 mm radius cleared
Antimycin | inhibits, 13 mm radius cleared |  | 
C[C@@H]1C[C@@H]2CCCC(O)=C2C(=O)O1 [Ramulosin] |  | no effect on growth or pigmentation | 
